Data taken from patent US6806267B1, “Apoptosis-inducing compounds” (priority 1998, dated 2004).

Experiments:
HL-60 cells = experiment: Apoptosis in HL-60 cells, cytospin and Rapi-Diff staining; settings: for protection against PBOX-6 induced apoptosis: HL-60, N-acetylcysteine 5 mM or TEMPO 1 μM, 30 min prior to PBOX-6 8 hours; for cytotoxicity at 10 µM: Homo sapiens, HL-60, 16 h, read-out: % Apoptosis; for induction of apoptosis at 10 μM / induction of apoptosis at a higher concentration: HL 60 cells; for induction of apoptosis at a higher concentration: higher concentration printed as 10 μM
K562 cells = experiment: Apoptosis in K562 cells, cytospin and staining; format: cell-based, human; settings: for protection against PBOX-6 induced apoptosis / effect of tyrosine kinase inhibitor pretreatment on PBOX-6 induced apoptosis: K562; for protection against PBOX-6 induced apoptosis: Vitamin E 1 hour or N-acetylcysteine 24 hours, then PBOX-6 16 hours; for effect of pretreatment on PBOX-6 induced apoptosis: K562, 1 hour prior to PBOX-6 16 hours; for induction of apoptosis: K562 cells; for effect of tyrosine kinase inhibitor pretreatment on PBOX-6 induced apoptosis: genistein 100 μM, herbimycin A 5 μM, tyrophostin 200 μM
[1] = biological target: T1, peripheral-type benzodiazepine receptor (PBR) (Homo sapiens, UniProt P30536); experiment: Radioligand binding assay, inhibition of [^3H]PK 11195 binding to HL-60 homogenates; settings: for Ki: HL-60 homogenates, 2 nM [^3H]PK 11195, mean±SEM, read-out: Inhibition of [^3H]PK 11195 binding to the PBR, Ki value
T1 construct: Cell homogenates (50 μg protein) were incubated with 0.5-50 nM [^3H]; PK 11195; endogenous in cells; host or cells: HL-60 cell homogenate
Protocol: HL-60 cells were harvested by centrifugation at 600 g for 5 min and washing in phosphate-buffered saline. The resulting cell pellet was homogenised in 50 mM Tris/HCl buffer, pH 7.4 (2 ml), using an Ultraturrax homogeniser (10 sec) and then passed 5 times through a 21 gauge needle. Cell homogenates (50 μg protein) were incubated with 0.5-50 nM [^3H] PK 11195 in 50 mM Tris/HCl buffer, pH 7.4 (incubation buffer), in a total volume of 0.5 ml on ice. Total and non-specific/non-saturable binding in each case was determined in the absence and presence of 10 μM unlabelled PK 11195 respectively. All samples were incubated in triplicate for 60 min. The incubation mixtures were then filtered and counted as previously described (O'Beirne, et al., 1988). When testing the potency of a compound to inhibit [^3H] PK 11195 binding, samples were incubated with 2 nM [3H] PK 11195 and various concentrations (0.1 nM to 1 μM) of compound and subsequently treated exactly as above. The resulting Ki values were then generated by the use of the computer programs EBDA and LIGAND.
The amount of radioactivity bound in the presence of the displacer was expressed as a percentage of control bonding and the values represent the mean±SEM of triplicate determinations from one representative experiment performed at least twice. The Ki values were obtained as described in Methods section.

[2] = system: human 132 l N1 astrocytoma; settings: dose-dependent; cited from earlier work
rat C6 glioma = settings: dose-dependent; cited from earlier work
[3] = system: CML cell lines K562, KYO.1 and Lama 84; experiment: Apoptosis in CML cell lines, cytospin and staining; format: cell-based, human; settings: for induction of apoptosis at 10 μM / induction of apoptosis at 100 μM: CML cells
JNK1 and JNK2 = format: cell-based, human; settings: K562
[4] = system: tyrosine phosphorylated proteins; experiment: Protein tyrosine phosphorylation Western blot, K562 cells; format: cell-based, human; settings: K562, 100 μM in DMSO, 1 hr prior to PBOX-6
Protocol: Jurkat and CML cells (5×10^6) were harvested by centrifuigation at 1800 g for 10 min at 4° C. After being washed once with ice-cold phosphate-buffered saline, the cell pellet was suspended in 100 μl of ice-cold lysis buffer (50 mM Tris-HCl, pH 8.0, 150 mM NaCl, 0.1%.SDS, 1% Triton X-100, 1 mM sodium 1 mM phenylmethylsulfonyl, 10 ng/ml leupeptin and 10 ng/ml of aprotinin). The cells were left to sit on ice for 10 min and then centrifuged at 20,000 g for 20 min. The resulting supernatant was stored at −70° C. until measurement of tyrosine phosphorylation. Protein determination was measured by using the Bradford assay. Equal amounts of protein were resolved by SDS-polyacrylamide gel electrophoresis in 15% gels and transferred onto polyvinylidene difluoride (PVDF) membranes. Membranes were blocked with Tris-buffered saline with Tween 20 (10 mM Tris-HCl, pH 8.0, 150 mM NaCl, 0.05% Tween 20) containing 1% w/v BSA and probed with anti-phosphotyrosine antibody. Blots were washed, incubated with goat anti-mouse IgG peroxidase conjugate and developed by ECL according to the manufacturer's recommendations.

T1 sequence (P30536 whole entry): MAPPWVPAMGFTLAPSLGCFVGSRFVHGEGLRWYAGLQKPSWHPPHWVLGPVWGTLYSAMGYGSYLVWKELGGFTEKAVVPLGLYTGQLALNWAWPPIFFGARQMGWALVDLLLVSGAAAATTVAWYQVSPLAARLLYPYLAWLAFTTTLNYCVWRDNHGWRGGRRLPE

With `CC(=O)N[C@@H](CS)C(=O)O` [N-acetylcysteine, reference compound] the “protection against PBOX-6 induced apoptosis” value (“protection” for short) (HL-60 cells) was “Neither of these compounds were found to protect” and the “protection” value (K562 cells) was “failed to protect”.
In the case of `CC(=O)OC1=C(c2cccc3ccccc23)Oc2ccccc2-n2cccc21` [PBOX-4, 7-Acetoxy-6-(1-naphthyl)pyrrolo[2,1-d][1,5]benzoxazepine], the Ki [1] is reported as 1.9 ± 2.3 nM and the cytotoxicity at 10 µM (HL-60 cells) is reported as 42.1 ± 0.6%.
With `CNC(=O)OC1=C(c2cccc3ccccc23)Oc2ccccc2-n2cccc21` [PBOX-7, 7-[(Methylcarbamoyl)oxy]-6-(1-naphthyl)pyrrolo[2,1-d][1,5]-benzoxazepine] the Ki [1] was 1.7 ± 0.7 nM, the degree of necrosis (HL-60 cells; HL-60 cells, 10 μM, 16 hours) was “negligible” and the cytotoxicity at 10 µM (HL-60 cells) was 40.7 ± 2.5%.
Compound `CN(C)C(=O)OC1=C(c2cccc3ccccc23)Sc2ccccc2-n2cccc21` [PBOX-8, 7-((Dimethylcarbamoyl)oxy)-6-(1-naphthyl)pyrrolo[2,1-d][1,5]benzothiazepine] has a cytotoxicity at 10 µM (HL-60 cells) of 38.6 ± 3.1%.
`CC(=O)OC1=C(c2cccc3ccccc23)Sc2ccccc2-n2cccc21` [PBOX-9, 7-Acetoxy-6-(1-naphthyl)pyrrolo[2,1-d][1,5]benzothiazepine] gave a cytotoxicity at 10 µM (HL-60 cells) of 40.4 ± 3%.
Work on `CC(=O)OC1=C(c2cccc3ccccc23)Oc2cccnc2-n2cccc21` [PBOX-12, 7-Acetoxy-6-(1-naphthyl)pyrrolo[1,2-d]pyrido[3,2-b][1,4]oiazepine] yielded a cytotoxicity at 10 µM (HL-60 cells) of 27.1 ± 2.7%.
For `CCN(CC)C(=O)OC1=C(c2ccc(C)cc2)Oc2ccccc2-n2cccc21` [PBOX-21], the “inhibition of proliferation, without being cytotoxic” value (shortened to “inhibition … without being cytotoxic”) [2] is listed as “inhibit at micromolar concentrations” and the “inhibition … without being cytotoxic” value (rat C6 glioma) is listed as “inhibit at micromolar concentrations”.
`CC(=O)OC1=C(c2ccc(C)cc2)Oc2ccccc2-n2cccc21` [PBOX-24, 7-Acetoxy-6p-tolylpyrrolo[2,1-d][1,5]benzoxazepine] gave a cytotoxicity at 10 µM (HL-60 cells) of 7 ± 1.2%.
For `CCNC(=O)OC1=C(c2ccccc2)Oc2ccccc2-n2cccc21` [PBOX-25, 7-[(Ethylcarbamoyl)oxy]-6-phenylpyrrolo[2,1-d][1,5]benzoxazepine], the cytotoxicity at 10 µM (HL-60 cells) was 19.2 ± 3%.
`CCN(CC)C(=O)OC1=C(c2ccccc2)Oc2cccnc2-n2cccc21` [PBOX-26, 7-((Diethylcarbamoyl)oxy)-6-phenylpyrrolo[1,2-d]pyrido[3,2-b][1,4]oxazepine] gave a cytotoxicity at 10 µM (HL-60 cells) of 7.8 ± 2.3%.
In the case of `COc1ccc(C2=C(OC(=O)c3ccncc3)c3cccn3-c3ccccc3S2)cc1` [PBOX-28, 7-Isonicotinoyloxy-6-p-methoxyphenylpyrrolo[2,1-d][1,5]-benothiazepine], the cytotoxicity at 10 µM (HL-60 cells) is reported as 31.1 ± 1.7%.
`CCCC(=O)OC1=C(c2ccc(OC)cc2)[S+]([O-])c2ccccc2-n2cccc21` (stereo not shown) [PBOX-30, 7-(Butyryloxy)-6-(p-methoxyphenyl)pyrrolo[2,1-d][1,5]-benzothiazepine 5-Oxide] showed a cytotoxicity at 10 µM (HL-60 cells) of 33.1 ± 1.6%.
In the case of `CCC(C)N(C)C(=O)c1cc2ccccc2c(-c2ccccc2Cl)n1` (stereo not shown) [PK 11195, 1-(2-chlorophenyl)-N-methyl-N-(1-methylpropyl)-3-isoquinolinecarboxamide], the “inhibition … without being cytotoxic” value [2] is listed as “inhibit at micromolar concentrations”, the “inhibition … without being cytotoxic” value (rat C6 glioma) is listed as “inhibit at micromolar concentrations” and the “induction of apoptosis at 10 μM” value (HL-60 cells; 10 μM) is listed as “did not induce apoptosis”. The “induction of apoptosis at a higher concentration” value (HL-60 cells) was “induced apoptosis”, the “induction of apoptosis at 10 μM” value [3] was “failed to induce apoptosis” and the “induction of apoptosis at 100 μM” value [3] was “apoptosis was induced, although not to the same extent”.
For `CN1C(=O)CN=C(c2ccc(Cl)cc2)c2cc(Cl)ccc21` [Ro5-4864, 7-chloro-5-(4-chlorophenyl)-1,3-dihydro-1-methyl-2-H-1,4-benzodiazepin-2-one], the “inhibition … without being cytotoxic” value [2] is listed as “inhibit at micromolar concentrations”, the “inhibition … without being cytotoxic” value (rat C6 glioma) is listed as “inhibit at micromolar concentrations” and the “induction of apoptosis at 10 μM” value (HL-60 cells; 10 μM) is listed as “did not induce apoptosis”. For the same compound, the “induction of apoptosis at a higher concentration” value (HL-60 cells) was “induced apoptosis”, the “induction of apoptosis at 10 μM” value [3] was “failed to induce apoptosis” and the “induction of apoptosis at 100 μM” value [3] was “apoptosis was induced, although not to the same extent”.
For `CC1(C)CCCC(C)(C)N1[O]` [TEMPO, reference compound], the “protection” value (HL-60 cells) was “Neither of these compounds were found to protect”.
With `CCC(C)N(C)C(=O)c1cc2ccccc2c(-c2ccccc2Cl)n1` (stereo not shown) [[^3H] PK 11195, reference compound] the “Bmax of [^3H] PK 11195 binding” value ([1]; HL-60 cell homogenates) was 9.5±1.5 pmol/mg of protein.
With `COc1cc([C@@H]2c3cc4c(cc3[C@@H](O[C@@H]3O[C@@H]5CO[C@@H](C)O[C@H]5[C@H](O)[C@H]3O)[C@H]3COC(=O)[C@H]23)OCO4)cc(OC)c1O` [etoposide] the “effect of Topo II inhibitor pretreatment on PBOX-6 induced JNK activation” value (JNK1 and JNK2) was “failed to prevent against PBOX-6 induced activation of JNK”, the “effect of pretreatment on PBOX-6 induced apoptosis” value (K562 cells) was “protects against apoptosis” and the apoptosis (K562 cells; K562, up to 24 hours) was “failed to undergo apoptosis”. The induction of apoptosis (K562 cells) was “does not induce apoptosis”.
For `O=c1c(-c2ccc(O)cc2)coc2cc(O)cc(O)c12` [genistein, reference compound], the “effect of pretreatment on PBOX-6 induced protein phosphorylation” value [4] was “prevented the phosphorylation of these two proteins” and the “effect of tyrosine kinase inhibitor pretreatment on PBOX-6 induced apoptosis” value (K562 cells) was “completely inhibited the induction of apoptosis”.
With `CO[C@H]1[C@@H](OC)C[C@H](C)[C@@H](OC)C2=CC(=O)C=C(NC(=O)/C(C)=C/C=C\[C@H](OC)[C@@H](OC(N)=O)/C(C)=C/[C@@H]1C)C2=O` [herbimycin A] the “effect of tyrosine kinase inhibitor pretreatment on PBOX-6 induced apoptosis” value (K562 cells) was “reduced levels of apoptosis”.
With `O=C1c2c(O)ccc(O)c2C(=O)c2c(NCCNCCO)ccc(NCCNCCO)c21` [mitoxanthrone] the “effect of pretreatment on PBOX-6 induced apoptosis” value (K562 cells) was “protects against apoptosis” and the induction of apoptosis (K562 cells) was “does not induce apoptosis”.
For Vitamin E, the “protection” value (K562 cells) was “failed to protect”.
For z-DEVD-fmk [reference compound], the “effect of pre-treatment on morphological signs of apoptosis induced by PBOX-6” value (HL-60 cells) was “inhibited” and the “effect of pretreatment on PBOX-6 induced apoptosis” value [3] was “failed to prevent the induction of apoptosis”.
